Source: paper PMC12288609 (Bioorganic & medicinal chemistry letters, 2024)
Read-outs that look alike come from different tables or passages of the source. Marks after values point to notes of the source that are not given here.

Key:
[1] = Distribution coefficient at pH 7.4 by HPLC-based method; assay type: physicochemical; conditions: pH 7.4, estimated by an HPLC-based method; for chromatographic logD: HPLC-based method (chromatographic retention), read-out: elogD7.4
[2] = tested on: HUVECs; assay: Endothelial cell tube formation assay
[3] = IAM chromatography, chromatographic hydrophobicity index; assay type: physicochemical; conditions: pH 7.4 mobile phase
Method: Before determining neosubstrate degradation, an obvious effect of fluorination was experimentally specified in this study, i.e., the alteration of lipophilicity. Distribution coefficients at pH 7.4 were determined by an HPLC-based method.[14] As expected, the lipophilicity (elogD7.4) increased due to the introduction of fluorine, and elogD differences were in the range of 0.8 to 1.2 (Table 1). […] The exchange of the glutarimide in 1, 2, 5, and 6 by the barbituric acid unit in 3, 4, 7, and 8 increased lipophilicity by elogD differences of 1.3 to 1.7. Drug-membrane interactions were assessed by a high-throughput HPLC method on an Immobilized Artificial Membrane (IAM) column consisting of monolayers of phospholipids covalently bound to silica particles.[15]
[16] IAM chromatography was performed with a Regis IAM.PC.DD2 column (100 × 4.6 mm, 10 μm, 300 Å) equipped with a guard cartridge at 25 °C as described.[14] Mobile phase A was 50 mM NH4OAc, pH 7.4, mobile phase B was MeCN. The retention times were determined with a gradient of 0 to 95% MeCN from 0 to 6 min, which was kept at 95% until 6.5 min, then dropped to 0% from 6.5 to 7 min, and finally kept at 0% until 9 min. The mobile phase flow rate was 1.5 mL/min. A calibration was performed by plotting the retention times of paracetamol, acetanilide, acetophenone, propiophenone, butyrophenone, valerophenone, and octanophenone against their literature CHI values.[15].

[4] = target: IKZF3-GFP fusion protein (Homo sapiens, UniProt Q96SW2+Q9UKT9); conditions: MM.1S cells, 16 h, 0.1 μM, 1.0 μM and 10 μM
Method: This method distinguished direct effects on protein degradation from effects that regulate transcriptional expression.
In brief, the plasmid comprised the IMiD-binding zinc finger 2 (ZF2) of IKZF3 fused to eGFP with mCherry in vector backbone. MM.1S cells were lentivirally transduced with the IKZF3-ZF2 reporter and treated with respective compounds for 16 hours. Flow cytometry was performed for the quantification of eGFP and mCherry mean fluorescence intensity. The eGFP/mCherry ratio was indicative of IKZF3-ZF2 degradation levels. Compound-treated samples were normalized to DMSO-treated samples. Data was obtained with biological replicates (n=3) and representmean± SD.
The Artichoke reporter assay was performed as described.[14] Briefly, HEK293T cells were transfected and virus was harvested. MM1.S cells were transduced and treated with the test compounds. Cells were measured on a Cytoflex (Beckman Coulter) flow cytometer. Live single cells expressing mCherry were gated for FITC and histograms displaying counts were plotted and quantified.

[5] = target: IKZF3 (Homo sapiens, UniProt Q96SW2+Q9UKT9); assay: IKZF3 degradation in MM.1S cells, Western blot; conditions: 16 h; for IKZF3 degradation (Western blot, in words): 1.0 μM (0.1 μM in Fig. S2); for Neosubstrate degradation (%) IKZF3: 1.0 μM, Western blot densitometry normalized to DMSO
[6] = target: SALL4 (Homo sapiens, UniProt Q96SW2+Q9UJQ4); assay: SALL4 degradation in HuH6 cells, Western blot; conditions: 16 h; for SALL4 degradation (Western blot, in words): 1.0 μM (0.1 μM in Fig. S2); for Neosubstrate degradation (%) SALL4: 1.0 μM, Western blot densitometry normalized to DMSO
[7] = tested on: HUVECs; assay: CCK-8 cell proliferation assay, HUVEC; assay type: cell-based, human; conditions: 48 h
Method: (§1) HUVEC cells were cultured as described.[13]
(§2) [19] For the cell proliferation assay, HUVEC (15,000 cells/well) and MM1.S (20,000 cells/well) cells were seeded in a 96-well plate in 50 μL/well and allowed to incubate overnight at 37 °C in 5% CO2. An equal amount of treatment media containing the vehicle (0.5% DMSO), or the test compound was then plated on top of the seeded for 48 hours (HUVEC) or 72 hours (MM1.S). Cell proliferation was evaluated by adding 10 μL of Cell Counting Reagent-8 (CCK-8; Dojindo Laboratories, Rockville, MD) to each well and incubated for 2 hours. Plates were read at absorbance of 450 nm on a microplate reader (SpectraMax iD3, Molecular Devices, San Jose, CA).

[8] = tested on: multiple myeloma MM1.S cells; assay: CCK-8 cell proliferation assay, MM1.S; assay type: cell-based; conditions: 10 μM, 72 h
Method: as §1, §2

[9] = target: human TBD (residues 319–425 of human CRBN); design: method as in PMID 33310190; conditions: affinity to human TBD, n.b. = no significant CRBN binding, cited from earlier work
[10] = Metabolic stability in human liver microsomes
Method: Metabolic stability analyses in human liver microsomes were performed by Pharmacelsus (Saarbrücken, Germany) as described.[14].

[11] = tested on: HUVECs; conditions: cited from earlier work; for Tube formation IC50: endothelial cell tube formation assay, n.i. = no inhibition, tested at 10–100 μM without significant antiangiogenic activity
[12] = cited from earlier work
[13] = Homo sapiens, HUVEC, 18 h, read-out: Inhibition of tube formation (%)

Chain of IKZF3 (Q9UKT9 whole entry): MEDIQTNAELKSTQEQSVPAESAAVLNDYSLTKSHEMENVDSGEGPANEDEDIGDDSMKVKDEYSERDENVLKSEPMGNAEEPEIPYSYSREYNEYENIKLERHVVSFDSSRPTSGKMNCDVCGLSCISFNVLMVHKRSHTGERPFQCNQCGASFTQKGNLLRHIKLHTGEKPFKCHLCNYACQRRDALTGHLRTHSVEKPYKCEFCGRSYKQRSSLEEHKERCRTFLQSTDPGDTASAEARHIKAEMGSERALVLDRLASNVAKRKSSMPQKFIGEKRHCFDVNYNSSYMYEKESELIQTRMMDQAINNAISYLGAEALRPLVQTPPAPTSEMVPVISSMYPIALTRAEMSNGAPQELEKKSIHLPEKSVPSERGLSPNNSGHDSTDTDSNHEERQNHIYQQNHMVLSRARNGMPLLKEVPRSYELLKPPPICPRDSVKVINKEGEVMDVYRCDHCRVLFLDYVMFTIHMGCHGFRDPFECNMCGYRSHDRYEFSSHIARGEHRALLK
Chain of IKZF3 (Q96SW2 whole entry): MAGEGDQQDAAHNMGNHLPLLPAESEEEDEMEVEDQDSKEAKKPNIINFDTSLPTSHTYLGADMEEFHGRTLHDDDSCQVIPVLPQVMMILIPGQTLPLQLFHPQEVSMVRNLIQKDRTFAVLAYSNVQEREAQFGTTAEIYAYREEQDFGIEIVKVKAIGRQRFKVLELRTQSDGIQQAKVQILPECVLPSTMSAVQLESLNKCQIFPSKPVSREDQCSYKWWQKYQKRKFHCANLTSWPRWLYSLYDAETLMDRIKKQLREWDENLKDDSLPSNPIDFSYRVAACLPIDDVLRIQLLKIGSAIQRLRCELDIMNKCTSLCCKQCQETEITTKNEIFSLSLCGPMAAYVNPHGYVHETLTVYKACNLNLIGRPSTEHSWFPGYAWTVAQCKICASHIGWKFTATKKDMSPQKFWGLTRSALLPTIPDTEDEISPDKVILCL
Chain of IKZF3 (Q16531 whole entry partner): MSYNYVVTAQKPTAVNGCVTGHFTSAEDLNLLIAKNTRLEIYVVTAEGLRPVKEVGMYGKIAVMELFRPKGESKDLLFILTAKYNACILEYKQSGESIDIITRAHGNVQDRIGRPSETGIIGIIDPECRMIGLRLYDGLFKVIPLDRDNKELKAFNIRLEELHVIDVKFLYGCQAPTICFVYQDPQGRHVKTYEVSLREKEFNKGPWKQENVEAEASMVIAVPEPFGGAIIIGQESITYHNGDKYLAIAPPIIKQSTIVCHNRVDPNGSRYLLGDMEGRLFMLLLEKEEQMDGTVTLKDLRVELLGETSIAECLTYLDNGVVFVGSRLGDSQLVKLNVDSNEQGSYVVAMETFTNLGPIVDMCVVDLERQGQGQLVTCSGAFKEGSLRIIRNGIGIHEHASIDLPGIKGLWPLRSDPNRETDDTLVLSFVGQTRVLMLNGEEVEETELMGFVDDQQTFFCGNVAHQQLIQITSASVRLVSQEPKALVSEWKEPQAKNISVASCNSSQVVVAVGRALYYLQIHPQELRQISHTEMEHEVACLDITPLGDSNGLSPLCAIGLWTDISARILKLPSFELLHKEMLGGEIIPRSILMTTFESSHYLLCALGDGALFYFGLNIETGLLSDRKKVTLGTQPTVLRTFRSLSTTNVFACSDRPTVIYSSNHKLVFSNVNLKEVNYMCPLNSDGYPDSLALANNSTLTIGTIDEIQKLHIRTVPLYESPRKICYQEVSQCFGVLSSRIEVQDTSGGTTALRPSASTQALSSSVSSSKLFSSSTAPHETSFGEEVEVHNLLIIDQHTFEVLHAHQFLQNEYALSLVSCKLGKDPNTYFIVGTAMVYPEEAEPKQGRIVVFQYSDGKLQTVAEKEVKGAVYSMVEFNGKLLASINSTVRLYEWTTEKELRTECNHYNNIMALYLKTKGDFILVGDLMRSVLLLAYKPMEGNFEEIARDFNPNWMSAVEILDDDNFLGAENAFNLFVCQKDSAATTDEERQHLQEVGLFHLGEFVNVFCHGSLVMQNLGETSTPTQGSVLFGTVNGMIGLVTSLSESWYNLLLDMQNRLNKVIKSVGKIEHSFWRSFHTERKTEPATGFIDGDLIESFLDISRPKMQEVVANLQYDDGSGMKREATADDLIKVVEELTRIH
Chain of IKZF3 (Q13619 whole entry partner): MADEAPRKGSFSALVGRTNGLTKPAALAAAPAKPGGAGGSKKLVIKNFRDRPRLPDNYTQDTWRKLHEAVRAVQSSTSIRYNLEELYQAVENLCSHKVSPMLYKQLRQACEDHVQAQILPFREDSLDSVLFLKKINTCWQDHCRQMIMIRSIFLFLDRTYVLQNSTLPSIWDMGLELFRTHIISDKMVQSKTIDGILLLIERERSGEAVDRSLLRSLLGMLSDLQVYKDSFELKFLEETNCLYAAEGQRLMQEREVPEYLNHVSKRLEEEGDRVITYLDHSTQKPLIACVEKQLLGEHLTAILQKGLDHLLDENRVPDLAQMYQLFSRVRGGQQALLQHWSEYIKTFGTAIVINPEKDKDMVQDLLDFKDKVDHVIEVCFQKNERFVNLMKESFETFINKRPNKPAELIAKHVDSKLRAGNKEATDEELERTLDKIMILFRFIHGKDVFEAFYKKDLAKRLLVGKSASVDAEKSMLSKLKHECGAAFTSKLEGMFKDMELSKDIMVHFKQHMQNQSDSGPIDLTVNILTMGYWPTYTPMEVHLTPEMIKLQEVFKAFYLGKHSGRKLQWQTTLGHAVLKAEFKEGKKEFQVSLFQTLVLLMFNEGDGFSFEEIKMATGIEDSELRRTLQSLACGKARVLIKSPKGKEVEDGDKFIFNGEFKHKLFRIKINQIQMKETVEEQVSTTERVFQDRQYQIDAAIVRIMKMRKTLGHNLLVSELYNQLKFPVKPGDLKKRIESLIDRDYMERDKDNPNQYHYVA
Chain of IKZF3 (P62877 whole entry partner): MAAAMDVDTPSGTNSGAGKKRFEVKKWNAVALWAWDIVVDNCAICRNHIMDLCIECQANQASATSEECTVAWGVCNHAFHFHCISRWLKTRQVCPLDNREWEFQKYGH
Chain of SALL4 (Q9UJQ4 whole entry): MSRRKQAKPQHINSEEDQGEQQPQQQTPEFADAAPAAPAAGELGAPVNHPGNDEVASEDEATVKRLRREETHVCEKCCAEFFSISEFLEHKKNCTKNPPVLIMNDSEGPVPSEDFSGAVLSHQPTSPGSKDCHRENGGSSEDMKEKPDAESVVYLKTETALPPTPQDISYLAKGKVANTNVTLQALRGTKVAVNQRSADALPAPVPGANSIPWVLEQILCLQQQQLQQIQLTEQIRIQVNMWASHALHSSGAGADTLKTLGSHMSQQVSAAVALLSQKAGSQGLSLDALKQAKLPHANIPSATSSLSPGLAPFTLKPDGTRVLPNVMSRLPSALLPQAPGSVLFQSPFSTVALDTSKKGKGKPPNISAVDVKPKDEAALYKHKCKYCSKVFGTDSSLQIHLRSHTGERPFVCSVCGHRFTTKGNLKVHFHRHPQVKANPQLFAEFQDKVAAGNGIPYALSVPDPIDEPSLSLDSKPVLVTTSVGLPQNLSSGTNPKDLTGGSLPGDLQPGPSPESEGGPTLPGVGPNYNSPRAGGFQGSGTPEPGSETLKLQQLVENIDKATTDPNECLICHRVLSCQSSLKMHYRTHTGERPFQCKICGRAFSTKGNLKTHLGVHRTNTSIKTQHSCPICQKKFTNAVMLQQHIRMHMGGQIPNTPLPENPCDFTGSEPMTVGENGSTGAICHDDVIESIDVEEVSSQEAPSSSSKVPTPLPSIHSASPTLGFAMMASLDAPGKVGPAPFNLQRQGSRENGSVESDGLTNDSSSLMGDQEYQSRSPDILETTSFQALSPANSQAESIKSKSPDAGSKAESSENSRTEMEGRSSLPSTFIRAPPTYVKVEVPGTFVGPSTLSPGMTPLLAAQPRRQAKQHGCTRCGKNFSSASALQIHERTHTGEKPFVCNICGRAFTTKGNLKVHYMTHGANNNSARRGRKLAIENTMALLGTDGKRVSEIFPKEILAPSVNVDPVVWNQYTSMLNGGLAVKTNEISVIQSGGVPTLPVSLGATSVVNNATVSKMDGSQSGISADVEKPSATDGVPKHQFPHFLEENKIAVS
Chain of SALL4 (Q96SW2 whole entry): as the sequence (Q96SW2 whole entry) above
Chain of SALL4 (Q16531 whole entry partner): as the sequence (Q16531 whole entry partner) above
Chain of SALL4 (Q13619 whole entry partner): as the sequence (Q13619 whole entry partner) above
Chain of SALL4 (P62877 whole entry partner): as the sequence (P62877 whole entry partner) above
Chain of IKZF3-GFP fusion protein (Q9UKT9 146-168 limits assumed): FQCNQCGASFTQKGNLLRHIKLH
Chain of IKZF3-GFP fusion protein (Q96SW2 whole entry, the tested form may be a part): as the sequence (Q96SW2 whole entry) above
Chain of IKZF3-GFP fusion protein (Q16531 whole entry partner, the tested form may be a part): as the sequence (Q16531 whole entry partner) above
Chain of IKZF3-GFP fusion protein (Q13619 whole entry partner, the tested form may be a part): as the sequence (Q13619 whole entry partner) above
Chain of IKZF3-GFP fusion protein (P62877 whole entry partner, the tested form may be a part): as the sequence (P62877 whole entry partner) above

O=C1CCC(NC(=O)c2cccc(F)c2)C(=O)N1 (stereo not shown) [Compound 10, N-(2,6-Dioxo-3-piperidyl)-3-fluorobenzamide]
chromatographic logD [1]: 0.1
inhibition at 100 µM [2, 13]: 10.3%
CHIIAM [3]: 10.6

O=C1CCC(NC(=O)c2cc(F)c(F)c(F)c2)C(=O)N1 (stereo not shown) [Compound 19]
chromatographic logD [1]: 1
inhibition at 100 µM [2, 13]: 8.1%
CHIIAM [3]: 17.9

O=C1CCC(NC(=O)c2ccc(F)cc2)C(=O)N1 (stereo not shown) [Compound 11, N-(2,6-Dioxo-3-piperidyl)-4-fluorobenzamide]
chromatographic logD [1]: 0.1
inhibition at 100 µM [2, 13]: 17.9%
CHIIAM [3]: 10.1

O=C1CCC(NC(=O)c2cccc(F)c2F)C(=O)N1 (stereo not shown) [Compound 12]
chromatographic logD [1]: 0.3
inhibition at 100 µM [2, 13]: 31.1%
CHIIAM [3]: 7.6

Nc1cccc2c1C(=O)N(C1CCC(=O)NC1=O)C2=O (stereo not shown) [pomalidomide, reference compound]
Abundance of IKZF3-GFP (eGFP/mCherry ratio, DMSO-normalized) [4]: induced to a greater extent
IKZF3 degradation (Western blot, in words) [5]: degraded IKZF3 and SALL4
SALL4 degradation (Western blot, in words) [6]: degraded IKZF3 and SALL4

CC(C)N1C(=O)NC(=O)C(C)(N2C(=O)c3c(F)c(F)c(F)c(F)c3C2=O)C1=O (stereo not shown) [Compound 4]
Reduction of HUVEC growth ([7]; 10 μM): > 95%
Reduction of MM1.S growth [8]: > 95%
Neosubstrate degradation (%) IKZF3 [5]: <5%
elogD7.4 [1]: 3.0
CHIIAM [3]: 31.6
Neosubstrate degradation (%) SALL4 [6]: <5%
MST Ki [9]: n.b.
half-life [10]: > 1 h
microsomal CLint at 1 h [10]: 4.6 µL/min/mg

O=C1CCC(NC(=O)c2ccc(F)c(F)c2)C(=O)N1 (stereo not shown) [Compound 16]
chromatographic logD [1]: 0.6
inhibition at 100 µM [2, 13]: 15.5%
CHIIAM [3]: 13.6

O=C1CCC(N2C(=O)c3c(F)c(F)c(F)c(F)c3C2=O)C(=O)N1 (stereo not shown) [Compound 2, Tetrafluoro-thalidomide]
Reduction of HUVEC growth ([7]; 10 μM): 48%
Reduction of MM1.S growth [8]: 95%
Neosubstrate degradation (%) IKZF3 [5]: <5%
Antiangiogenic activity in the tube formation assay ([2]; 10 μM, HUVECs): significantly inhibited tubule formation
inhibition at 10 µM [2, 13]: 95.3%
CHIIAM [3]: 17.8
Neosubstrate degradation (%) SALL4 [6]: <5%

O=C1CCC(NC(=O)c2cc(F)c(F)cc2F)C(=O)N1 (stereo not shown) [Compound 18]
chromatographic logD [1]: 0.6
Inhibition of tube formation (%) ([2]; 100 μM, 18 h, HUVECs, relative to vehicle control, n.i. = no inhibition): n.i.^d
CHIIAM [3]: 11.0

CC(C)N1C(=O)NC(=O)C(C)(NC(=O)c2cc(F)c(F)c(F)c2F)C1=O (stereo not shown) [Compound 8]
Tube formation IC50 [11]: n.i.
Neosubstrate degradation (%) IKZF3 [5]: <5%
chromatographic logD [1]: 2.2
CHIIAM [3]: 27.9
Neosubstrate degradation (%) SALL4 [6]: <5%
MST Ki [9]: n.b.

CC(C)N1C(=O)NC(=O)C(C)(N2C(=O)c3ccccc3C2=O)C1=O (stereo not shown) [Compound 3]
Tube formation IC50 [11]: n.i.
Effect on HUVEC cell growth ([7]; 10 μM): did not affect HUVEC or MM1.S cell growth
Effect on MM1.S cell growth [8]: did not affect HUVEC or MM1.S cell growth
Neosubstrate degradation (%) IKZF3 [5]: 11%
chromatographic logD [1]: 2.2
CHIIAM [3]: 28.9
Neosubstrate degradation (%) SALL4 [6]: <5%
MST Ki [9]: n.b.^i
half-life [10]: > 1 h
microsomal CLint at 1 h [10]: 10.3 µL/min/mg

N#Cc1ccc(N2CCN(Cc3ccc(COc4cccc5c4CN([C@H]4CCC(=O)NC4=O)C5=O)cc3)CC2)c(F)c1 [mezigdomide, reference compound]
Abundance of IKZF3-GFP (eGFP/mCherry ratio, DMSO-normalized) [4]: induced to a greater extent
IKZF3 degradation (Western blot, in words) [5]: degraded IKZF3 and SALL4
SALL4 degradation (Western blot, in words) [6]: degraded IKZF3 and SALL4

O=C1CCC(NC(=O)c2cc(F)cc(F)c2)C(=O)N1 (stereo not shown) [Compound 15]
chromatographic logD [1]: 0.6
inhibition at 100 µM [2, 13]: 44.3%
CHIIAM [3]: 12.3

O=C1CCC(NC(=O)c2cc(F)c(F)c(F)c2F)C(=O)N1 (stereo not shown) [Compound 6]
elogD7.4 ([12]; pH 7.4, HPLC-based method): 0.9^j

O=C1CCC(NC(=O)c2ccc(F)cc2F)C(=O)N1 (stereo not shown) [Compound 13]
chromatographic logD [1]: 0.3
inhibition at 100 µM [2, 13]: 35.8%
CHIIAM [3]: 7.2

O=C1CCC(NC(=O)c2ccccc2)C(=O)N1 (stereo not shown) [Compound 5]
elogD7.4 ([12]; pH 7.4): −0.3^j

O=C1CCC(NC(=O)c2ccc(F)c(F)c2F)C(=O)N1 (stereo not shown) [Compound 17]
chromatographic logD [1]: 0.7
inhibition at 100 µM [2, 13]: 30.3%
CHIIAM [3]: 12.2

O=C1CCC(NC(=O)c2ccccc2F)C(=O)N1 (stereo not shown) [Compound 9, N-(2,6-Dioxo-3-piperidyl)-2-fluorobenzamide]
chromatographic logD [1]: -0.1
inhibition at 100 µM [2, 13]: 13.4%
CHIIAM [3]: 5.7

O=C1CCC(NC(=O)c2cc(F)ccc2F)C(=O)N1 (stereo not shown) [Compound 14]
chromatographic logD [1]: 0.3
inhibition at 100 µM [2, 13]: 24.2%
CHIIAM [3]: 7.2

O=C1CCC(N2C(=O)c3ccccc3C2=O)C(=O)N1 (stereo not shown) [Compound 1, thalidomide, reference compound]
Block of tube formation ([11]; concentration range 12.5–100 μM): failed to significantly block tube formation
Tube formation IC50 [11]: n.i.^h
Effect on HUVEC proliferation ([7]; 100 μM): decreased neither HUVEC proliferation
chromatographic logD [1]: 0.5
CHIIAM [3]: 12.5
Ki ([9]; read-out: MST Ki): 8.55 µM

CC(C)N1C(=O)NC(=O)C(C)(NC(=O)c2ccccc2)C1=O (stereo not shown) [Compound 7]
Tube formation IC50 [11]: n.i.
Neosubstrate degradation (%) IKZF3 [5]: <5%
chromatographic logD [1]: 1.2
CHIIAM [3]: 20.9
Neosubstrate degradation (%) SALL4 [6]: <5%
MST Ki [9]: n.b.
